A short description of series [1]: Metabolic stability in rat liver microsomes assessed as intrinsic clearance. The series is classed as ADME, Microsome. The following applies: read-out: CLH. (In general: Liver microsomes are vesicles of endoplasmic reticulum, rich in cytochrome P450 enzymes.)
Series [2] can be described thus: Unbound brain-to-plasma concentration ratio in iv dosed rat measured at 4 to 24 hrs by LC-MS/MS analysis. Format: ADME, organism-based. To be noted: brain and plasma, time 4-24 hrs, read-out: K(p,uu,brain).
A short description of series [3]: Drug metabolism in male Sprague-Dawley rat liver microsomes assessed as oxidative metabolism at methyl-THF moiety at 10 uM incubated for 60 mins by LC-MS/MS analysis. The series is classed as ADME, Microsome. The following applies: 1 h.
The next series relates to MDR1 (P-gp). The series can be described thus: Efflux ratio of apparent permeability across basolateral to apical side over apical to basolateral side in MDCK-MDR1 cells at 1 uM incubated for 120 mins by LC-MS/MS analysis. Format: ADME, cell-based, Canis lupus familiaris. The following applies: dog.
The target in series [4] is T1, Interleukin-1 receptor-associated kinase 4 (Homo sapiens, UniProt Q9NWZ3).
T1 sequence (Q9NWZ3 whole entry): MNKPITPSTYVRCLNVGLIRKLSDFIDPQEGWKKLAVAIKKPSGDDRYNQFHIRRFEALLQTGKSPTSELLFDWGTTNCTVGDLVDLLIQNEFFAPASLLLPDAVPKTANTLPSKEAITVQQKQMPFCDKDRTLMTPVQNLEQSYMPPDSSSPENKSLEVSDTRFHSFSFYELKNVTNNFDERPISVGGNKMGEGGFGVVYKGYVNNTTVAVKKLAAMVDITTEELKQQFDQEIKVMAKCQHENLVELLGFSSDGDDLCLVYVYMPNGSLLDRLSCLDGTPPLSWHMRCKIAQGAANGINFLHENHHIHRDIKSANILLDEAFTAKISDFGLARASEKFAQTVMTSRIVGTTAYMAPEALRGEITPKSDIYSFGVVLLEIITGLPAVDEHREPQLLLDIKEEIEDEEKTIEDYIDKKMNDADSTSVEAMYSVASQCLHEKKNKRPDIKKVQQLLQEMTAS

Series [5] can be described thus: Drug metabolism in human liver microsomes assessed as oxidative metabolism at methyl-THF moiety at 10 uM incubated for 60 mins by LC-MS/MS analysis. The series is classed as ADME, Microsome. The following applies: 1 h.
Series [6] is described as follows: Metabolic stability in human liver microsomes assessed as intrinsic clearance. Format: ADME, Microsome. To be noted: read-out: CLH.

Molecules are shown by their SMILES.

One may read the efflux ratio as a quotient of directional permeabilities that is used to spot active efflux. The IC50 is the concentration that inhibits the measured activity by half. High values mean a need for much substance, low ones inhibition by little substance. `CCOc1cc2nc(C[C@@H]3CCOC3)cn2cc1NC(=O)c1cccc(C(F)F)n1`: the figures for the CLint scaled in series [1] and in series [6] were 171 mL/min/kg and 62 mL/min/kg, respectively. Moreover, the Kp uu in series [2] was found to be 0.9. In addition, the Drug metabolism entry in series [3] and in series [5] was “Metabolite_Detected” throughout. Further, the efflux ratio at 2 h, 1 µM with MDR1 (P-gp) was determined as 1.5. The same molecule showed an IC50 in series [4] of 0.9 nM.

(Values after ChEMBL document CHEMBL5518220, “The Discovery of 7-Isopropoxy-2-(1-methyl-2-oxabicyclo[2.1.1]hexan-4-yl)-N-(6-methylpyrazolo[1,5-a]pyrimidin-3-yl)imidazo[1,2-a]pyrimidine-6-carboxamide (BIO-7488), a Potent, Selective, and CNS-Penetrant IRAK4 Inhibitor for the Treatment of Ischemic Stroke” (J Med Chem, 2024).)
